Measured values as given in patent US8791139B2, “Anthranilic diamide derivatives” (Bayer Cropscience AG, priority 2010, dated 2014).
“And” between values parts separate entries of the source, which are not always exact repeats. Identical values can stand only once. Like-named read-outs stand apart in the source and are kept apart here. Each block holds one molecule with its values, some of them ahead of it.

How the values were obtained:
[1] = system: caterpillars of the armyworm (Spodoptera frugiperda); assay: Spodoptera frugiperda test (SPODFR spray treatment); type: in vivo; conditions: 168 h; for pest or weed control at 100 g/ha: read-out: activity (caterpillars killed)
Method: After 7 days, the effect in % is determined.

[2] = system: larvae of the mustard beetle (Phaedon cochleariae); assay: Phaedon test (PHAECO spray treatment); conditions: 168 h; for pest or weed control at 100 g/ha: read-out: activity (beetle larvae killed)
[3] = logP by HPLC on reversed-phase columns (C18), EEC Directive 79/831 Annex V.A8; type: physicochemical; conditions: for logP: HPLC reversed-phase C18, acidic range pH 2.7
Method: The logP values reported in the table above and in the Preparation Examples were determined in accordance with EEC Directive 79/831 Annex V.A8 by HPLC (High Performance Liquid Chromatography) on reversed-phase columns (C18), with the following methods:
The LC-MS determination in the acidic range is carried out at pH 2.7 using the mobile phases 0.1% aqueous formic acid and acetonitrile (contains 0.1% formic acid), linear gradient from 10% acetonitrile to 95% acetonitrile
Calibration was carried out using unbranched alkan-2-ones (having from 3 to 16 carbon atoms) with known logP values (the logP values were determined by the retention times using linear interpolation between two successive alkanones).

[4] = reversed-phase HPLC column (C18), pH 2.7, HPLC reversed-phase C18, acidic range pH 2.7, 0.1% aqueous formic acid/acetonitrile, table of compounds of formula (I), read-out: log P
[5] = application rate 100 g/ha, after 7 days
[6] = reversed-phase HPLC column (C18), pH 2.7, HPLC reversed-phase C18, acidic range pH 2.7, Preparation Examples (intermediates), read-out: logP
[7] = Preparation Examples (intermediates)

Molecule: CNC(=O)c1cc(Cl)cc(C)c1NC(=O)c1cc(C2=NOC(c3cc(Cl)cc(Cl)c3)(C(F)(F)F)C2)nn1-c1ncccc1Cl (stereo not drawn) [Example 1]
pest or weed control at 100 g/ha [1]: 100% | pest or weed control at 100 g/ha [2]: 83%

Molecule: Cc1cc(Br)cc(C(=O)NC(C)C)c1NC(=O)c1cc(C(=O)Nc2ccc(C(F)(F)F)cc2)nn1-c1ncccc1Cl [Example 3]
chromatographic logP ([3]; pH 2.7, log P): 4.02 | pest or weed control at 100 g/ha [2]: 100%

Molecule: Cc1cc(Cl)cc(C(=O)NC(C)C)c1NC(=O)c1cc(C(=O)Nc2ccc(C(F)(F)F)cc2)nn1-c1ncccc1Cl [Example 4]
chromatographic logP ([3]; pH 2.7, log P): 3.96 | pest or weed control at 100 g/ha [1]: 83%

Molecule: CNC(=O)c1cc(Cl)cc(C)c1NC(=O)c1cc(C#Cc2ccc(OC(F)(F)F)cc2)nn1-c1ncccc1Cl [Example 10]
chromatographic logP ([3]; pH 2.7, log P): 4.29 | pest or weed control at 100 g/ha [1]: 100% | pest or weed control at 100 g/ha [2]: 100%

Molecule: CNC(=O)c1cc(C#N)cc(C)c1NC(=O)c1cc(C#Cc2ccc(OC(F)(F)F)cc2)nn1-c1ncccc1Cl [Example 13]
chromatographic logP ([3]; pH 2.7, log P): 3.88 | pest or weed control at 100 g/ha [2]: 100%

Molecule: Cc1cc(C#N)cc(C(=O)NC(C)(C)C)c1NC(=O)c1cc(C(=O)c2nc(C(F)(F)F)cs2)nn1-c1ncccc1Cl [Example 14]
chromatographic logP ([3]; pH 2.7, log P): 3.57 | pest or weed control at 100 g/ha [1]: 100% | pest or weed control at 100 g/ha [2]: 100%

Molecule: CCOc1ccc(C(=O)c2cc(C(=O)Nc3c(C)cc(C#N)cc3C(=O)NC)n(-c3ncccc3Cl)n2)cn1 [Example 17]
chromatographic logP ([3]; pH 2.7, log P): 2.99 | pest or weed control at 100 g/ha [1]: 100% | pest or weed control at 100 g/ha [2]: 100%

Molecule: Cc1cc(Cl)cc(C(=O)NC(C)C)c1NC(=O)c1cc(CNS(=O)(=O)c2ccc(C(F)(F)F)cc2)nn1-c1ncccc1Cl [Example 46]
chromatographic logP ([3]; pH 2.7, log P): 3.47 | pest or weed control at 100 g/ha [1]: 83%

Molecule: Cc1cc(C#N)cc(C(=O)NC(C)C)c1NC(=O)c1cc(Nc2cc(C(F)(F)F)cc(C(F)(F)F)c2)nn1-c1ncccc1Cl [Example 73]
pest or weed control at 100 g/ha [1]: 100% | pest or weed control at 100 g/ha [2]: 100%

Molecule: O=C(c1ccc(C(F)(F)F)nc1)c1cc(C(=O)O)n(-c2ncccc2Cl)n1 [Example No. III-6, 1-(3-chloropyridin-2-yl)-3-{[6-(trifluoromethyl)pyridin-3-yl]carbonyl}-1H-pyrazole-5-carboxylic acid]
chromatographic logP [3, 6]: 2.33

Molecule: O=C(O)c1cc(Nc2ccc(C(F)(F)F)cn2)nn1-c1ncccc1Cl [Example No. III-10, 1-(3-Chloropyridin-2-yl)-3-{[5-(trifluoromethyl)pyridin-2-yl]amino}-1H-pyrazole-5-carboxylic acid]
chromatographic logP [3, 6]: 2.79

Molecule: COC(=O)c1cc(Cc2ccc(C(F)(F)F)nc2)nn1-c1ncccc1Cl [Example No. VII-c, methyl 1-(3-chloropyridin-2-yl)-3-{[6-(trifluoromethyl)pyridin-3-yl]methyl}-1H-pyrazole-5-carboxylate]
chromatographic logP [3, 6]: 2.86

Molecule: CCOC(=O)c1cc(C(=O)C(=O)c2ccc(Cl)cc2Cl)nn1-c1ncccc1Cl [Example No. VIII, ethyl 1-(3-chloropyridin-2-yl)-3-[(2,4-dichlorophenyl)(oxo)acetyl]-1H-pyrazole-5-carboxylate]
chromatographic logP [3, 6]: 4.29

Molecule: CCOC(=O)c1cc(C(=O)CBr)nn1-c1ncccc1Cl [Example No. VIII-a, ethyl 3-(bromoacetyl)-1-(3-chloropyridin-2-yl)-1H-pyrazole-5-carboxylate]
chromatographic logP [3, 6]: 2.87

Molecule: O=[N+]([O-])c1ccn(-c2ncccc2Cl)n1 [Example No. XVI, 3-Chloro-2-(3-nitro-1H-pyrazol-1-yl)pyridine]
chromatographic logP [3, 6]: 1.83

Molecule: CNC(=O)c1cc(C#N)cc(C)c1NC(=O)c1cc(CSc2ccc(C(F)(F)F)cn2)nn1-c1ncccc1Cl [No. 1 known WO 2007/144100, reference compound]
inhibition at 100 g/ha ([1]; 100 g/ha, 7 d, comparison with prior art): 0% | inhibition at 100 g/ha ([2]; read-out: % Activity, PHAECO): 0%

Continued, in another order:

chromatographic logP [3, 4]: 3.92
Molecule: Cc1cc(Cl)cc(C(=O)NC(C)C)c1NC(=O)c1cc(CNS(=O)(=O)Cc2ccc(C(F)(F)F)cc2C(F)(F)F)nn1-c1ncccc1Cl [Example 52]
pest or weed control at 100 g/ha [1, 5]: 83%

chromatographic logP [3, 4]: 4.5
Molecule: Cc1cc(Cl)cc(C(=O)NC(C)C)c1NC(=O)c1cc(CN(C)S(=O)(=O)c2cc(C(F)(F)F)cc(C(F)(F)F)c2)nn1-c1ncccc1Cl [Example 55]
pest or weed control at 100 g/ha [1, 5]: 100%

chromatographic logP [3, 4]: 4.37
Molecule: Cc1cc(Cl)cc(C(=O)NC(C)C)c1NC(=O)c1cc(CN(C)S(=O)(=O)Cc2cc(C(F)(F)F)cc(C(F)(F)F)c2)nn1-c1ncccc1Cl [Example 56]
pest or weed control at 100 g/ha [1, 5]: 100%

chromatographic logP [3, 4]: 4.05
Molecule: Cc1cc(Cl)cc(C(=O)NC2CC2)c1NC(=O)c1cc(CN(Cc2cc(C(F)(F)F)cc(C(F)(F)F)c2)S(C)(=O)=O)nn1-c1ncccc1Cl [Example 59]
pest or weed control at 100 g/ha [1, 5]: 100%

logP [3, 7]: 2.67
Molecule: O=C(Nc1ccc(C(F)(F)F)cc1)c1cc(C(=O)O)n(-c2ncccc2Cl)n1 [Example No. III-8]

chromatographic logP [3, 6]: 3.5
Molecule: CCOC(=O)c1cc(C(=O)Cn2nnc(C(F)(F)F)n2)nn1-c1ncccc1Cl [Example No. IX, ethyl 1-(3-chloropyridin-2-yl)-3-{[5-(trifluoromethyl)-2H-tetrazol-2-yl]acetyl}-1H-pyrazole-5-carboxylate]

chromatographic logP [3, 6]: 3.54
Molecule: COC(=O)c1cc(C(=O)Nc2ccc(C(F)(F)F)cc2)nn1-c1ncccc1Cl [Example No. IX-e, methyl 1-(3-chloropyridin-2-yl)-3-{[4-(trifluoromethyl)phenyl]carbamoyl}-1H-pyrazole-5-carboxylate]

chromatographic logP [3, 6]: 3.83
Molecule: COC(=O)c1cc(CN(C)S(=O)(=O)Cc2cc(C(F)(F)F)cc(C(F)(F)F)c2)nn1-c1ncccc1Cl [Example No. V, methyl 3-{[{[3,5-bis(trifluoromethyl)benzyl]sulphonyl}(methyl)amino]methyl}-1-(3-chloropyridin-2-yl)-1H-pyrazole-5-carboxylate]

logP [3, 7]: 4.46
Molecule: COC(=O)c1cc(C#Cc2ccc(OC(F)(F)F)cc2)nn1-c1ncccc1Cl [Example No. VII, methyl 1-(3-chloropyridin-2-yl)-3-{[4-(trifluoromethoxy)phenyl]ethinyl}-1H-pyrazole-5-carboxylate]

chromatographic logP [3, 6]: 2.31
Molecule: CCOC(=O)c1cc(C(C)=O)nn1-c1ncccc1Cl [Example No. VII-a, ethyl 3-acetyl-1-(3-chloropyridin-2-yl)-1H-pyrazole-5-carboxylate]

chromatographic logP [3, 6]: 4.82
Molecule: CCOC(=O)c1cc(N2CCN(c3cc(C(F)(F)F)cc(C(F)(F)F)c3)C2=O)nn1-c1ncccc1Cl [Example No. VII-b, ethyl 3-{3-[3,5-bis(trifluoromethyl)phenyl]-2-oxoimidazolidin-1-yl}-1-(3-chloropyridin-2-yl)-1H-pyrazole-5-carboxylate]

chromatographic logP [3, 6]: 1.82
Molecule: COC(=O)c1cc(C=O)nn1-c1ncccc1Cl [Example No. VII-e, methyl 1-(3-chloropyridin-2-yl)-3-formyl-1H-pyrazole-5-carboxylate]

chromatographic logP [3, 6]: 3.33
Molecule: COC(=O)c1cc(C(=O)c2ccc(C(F)(F)F)nc2)nn1-c1ncccc1Cl [Example No. VIII-c, methyl 1-(3-chloropyridin-2-yl)-3-{[6-(trifluoromethyl)pyridin-3-yl]carbonyl}-1H-pyrazole-5-carboxylate]

chromatographic logP [3, 6]: 1.38
Molecule: COC(=O)c1cc(C(=O)O)nn1-c1ncccc1Cl [Example No. VIII-e, 1-(3-chloropyridin-2-yl)-5-(methoxycarbonyl)-1H-pyrazole-3-carboxylic acid]

chromatographic logP [3, 6]: 1.67
Molecule: COC(=O)c1cc(C2CO2)nn1-c1ncccc1Cl (stereo not drawn) [Example No. XI, Methyl 1-(3-chloropyridin-2-yl)-3-(oxiran-2-yl)-1H-pyrazole-5-carboxylate]

chromatographic logP [3, 6]: 1.09
Molecule: COC(=O)c1cc(N)nn1-c1ncccc1Cl [Example No. XIX, Methyl 3-amino-1-(3-chloropyridin-2-yl)-1H-pyrazole-5-carboxylate]

chromatographic logP [3, 6]: 0.9
Molecule: O=C(O)c1cc([N+](=O)[O-])nn1-c1ncccc1Cl [Example No. XVII, 1-(3-Chloropyridin-2-yl)-3-nitro-1H-pyrazole-5-carboxylic acid]

chromatographic logP [3, 6]: 2.18
Molecule: COC(=O)c1cc([N+](=O)[O-])nn1-c1ncccc1Cl [Example No. XVIII, Methyl 1-(3-chloropyridin-2-yl)-3-nitro-1H-pyrazole-5-carboxylate]

chromatographic logP [3, 6]: 3.14
Molecule: COC(=O)c1cc(Nc2ccc(C(F)(F)F)cn2)nn1-c1ncccc1Cl [Example No. XX, Methyl 1-(3-chloropyridin-2-yl)-3-{[5-(trifluoromethyl)pyridin-2-yl]amino}-1H-pyrazole-5-carboxylate]

logP [3, 7]: 2.64 and 2.68
Molecule: Methyl 1-(3-chloropyridin-2-yl)-3-{1-hydroxy-2-[5-(trifluoromethyl)-2H-tetrazol-2-yl]ethyl}-1H-pyrazole-5-carboxylate/methyl 1-(3-chloropyridin-2-yl)-3-{1-hydroxy-2-[5-(trifluoromethyl)-1H-tetrazol-1-yl]ethyl}-1H-pyrazole-5-carboxylate [Example No. XII]

logP [3, 7]: 3.37 and 3.49
Molecule: Methyl 1-(3-chloropyridin-2-yl)-3-{(E)-2-[5-(trifluoromethyl)-2H-tetrazol-2-yl]vinyl}-1H-pyrazole-5-carboxylate/methyl 1-(3-chloropyridin-2-yl)-3-{(E)-2-[5-(trifluoromethyl)-1H-tetrazol-1-yl]vinyl}-1H-pyrazole-5-carboxylate [Example No. XIII]
